This is an account of results in ChEMBL document CHEMBL1201862, “PubChem BioAssay data set” (2004).

“And” between values parts separate entries of the source, which are not always exact repeats. Equal entries are not always repeated.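 1) Cells in 96-well plates. 2) Compound, 48 h, 5 concentrations. 3) Linear interpolation between surrounding doses. 4) Unreached endpoint = highest concentration. GI50 = concentration required for 50% inhibition of growth.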 The source made the active and inactive calls. Cut-off read from the data, not from the text of the source: active = GI50 up to about 1.1 µM and inactive = higher.

Among the test systems are CCRF-CEM; SK-MEL-28; MOLT-4; A498; NCI-H23; SW-620; UACC-257; OVCAR-8; SNB-19; SK-OV-3; MDA-MB-435; RPMI-8226; OVCAR-3; SN12C; SK-MEL-5; OVCAR-5; SK-MEL-2; COLO 205; DU-145; HCC 2998.
Common to all, as to assay: DTP human tumour cell line panel, 48 h

For the molecule `COc1ccc2c(Cl)cc(NC(=S)Nc3ccccc3)nc2c1`, the GI50 with CCRF-CEM was < 0.01 µM (active); with SK-MEL-28, 33.6 µM (inactive); with MOLT-4, 25.2 µM (inactive); with A498, 21.1 µM (inactive); with NCI-H23, 23.4 µM (inactive); in the assay on SW-620 it was 26.4 µM (inactive). The GI50 with UACC-257 is 60.8 µM (inactive); in the assay on OVCAR-8, 19.4 µM (inactive); with SNB-19, 20.6 µM (inactive); in the assay with SK-OV-3, 26 µM (inactive); in the assay on MDA-MB-435 it was 17.7 µM (inactive); in the assay on RPMI-8226, 21.2 µM (inactive). Besides, the GI50 in the assay on OVCAR-3 is 31.8 µM (inactive); in the assay with SN12C, 33.3 µM (inactive); with SK-MEL-5, 33.6 µM (inactive); in the assay with OVCAR-5, 30.1 µM (inactive); in the assay on SK-MEL-2, 22.4 µM (inactive); with COLO 205, 31.2 µM (inactive). Further, in the assay with DU-145, the GI50 was 35.7 µM (inactive).
In the case of `CN1CCN(c2ccc([N+](=O)[O-])c3no[n+]([O-])c23)CC1`, the GI50 in the assay with CCRF-CEM is 0.0143 µM (active); with SK-MEL-28, 1.98 µM (inactive); in the assay with A498, 1.04 µM (active); with NCI-H23, < 0.0359 µM (active); in the assay with SW-620, 0.0631 µM (active); in the assay with UACC-257, 1.19 µM (inactive). For the same molecule, the GI50 in the assay on OVCAR-8 is 0.24 µM (active); in the assay with SNB-19 it was 0.914 µM (active); in the assay with SK-OV-3, 0.148 µM (active); with MDA-MB-435, 1.05 µM (active); with RPMI-8226 it was 0.0628 µM (active); with OVCAR-3, 0.396 µM (active). Besides, the GI50 in the assay on SN12C was 0.106 µM (active); in the assay on SK-MEL-5 it was 0.743 µM (active); with OVCAR-5, 1.76 µM (inactive); in the assay on SK-MEL-2, 1.34 µM (inactive); with COLO 205, 0.656 µM (active); with DU-145, 0.141 µM (active).
As to `N=C(N)N/N=C/c1c(-c2cc([N+](=O)[O-])c(Cl)cc2Cl)nc2sccn12`, the GI50 was 0.714 µM (active) with CCRF-CEM; 1.38 µM (inactive) and 1.47 µM (inactive) in the assay on SK-MEL-28; 0.124 µM (active) with MOLT-4; 1.62 µM (inactive) and 1.61 µM (inactive) with A498; 1.56 µM (inactive) and 1.36 µM (inactive) with NCI-H23; 435 nM (active) and 1.27 µM (inactive) with SW-620. For the same molecule, the GI50 was 1.41 µM (inactive) and 1.44 µM (inactive) in the assay with UACC-257; 1.98 µM (inactive) and 2 µM (inactive) with OVCAR-8; 1.83 µM (inactive) in the assay on SK-OV-3; 332 nM (active) and 1.7 µM (inactive) in the assay with MDA-MB-435; 1.27 µM (inactive) and 1.75 µM (inactive) with RPMI-8226; 1.86 µM (inactive) in the assay with OVCAR-3. The GI50 was 2 µM (inactive) and 1.34 µM (inactive) in the assay with SN12C; 1.58 µM (inactive) and 1.35 µM (inactive) with SK-MEL-5; 1.87 µM (inactive) with OVCAR-5; 1.91 µM (inactive) and 1 µM (active) with SK-MEL-2; 2.15 µM (inactive) and 449 nM (active) in the assay with DU-145.
In the case of `CC(NC(=O)c1ccccc1)(C(=O)O)C(=O)O`, the GI50 in the assay on CCRF-CEM, in the assay on SK-MEL-28, in the assay with MOLT-4, in the assay on A498, in the assay on NCI-H23 and in the assay with SW-620 was > 100 µM (inactive) each time. Besides, the GI50 in the assay with UACC-257, in the assay with OVCAR-8, with SNB-19, in the assay on SK-OV-3, in the assay with MDA-MB-435 and in the assay with RPMI-8226 was > 100 µM (inactive) throughout. In addition, the GI50 in the assay on OVCAR-3, in the assay with SN12C, with SK-MEL-5, in the assay with OVCAR-5, in the assay with SK-MEL-2 and with COLO 205 was > 100 µM (inactive) throughout. Besides, the GI50 in the assay on DU-145 was > 100 µM (inactive).
For `C[C@H](c1ccccc1)N1C(=O)[C@@H](OCc2ccccc2)[C@H]1[C@H](COC(=O)COCc1ccccc1)OCc1ccccc1`, the GI50 in the assay on CCRF-CEM was > 100 µM (inactive); in the assay on SK-MEL-28, > 100 µM (inactive); with MOLT-4 it was 67.5 µM (inactive); with A498 it was > 100 µM (inactive); in the assay on NCI-H23, 57.3 µM (inactive); in the assay with SW-620 it was > 100 µM (inactive). Also, the GI50 in the assay with SNB-19 is 37.1 µM (inactive); with SK-OV-3 it was > 100 µM (inactive); in the assay with MDA-MB-435, 54.1 µM (inactive); in the assay on RPMI-8226, 27.9 µM (inactive); in the assay with OVCAR-3 it was > 100 µM (inactive); in the assay with SN12C, > 100 µM (inactive). Further, the GI50 in the assay with SK-MEL-5 is 58.7 µM (inactive); with OVCAR-5, > 100 µM (inactive); in the assay with SK-MEL-2 it was > 100 µM (inactive); in the assay on COLO 205, > 100 µM (inactive); in the assay on DU-145 it was > 100 µM (inactive).
Take `CCOP(=O)(OCC)C1CC(O)C(=O)N1` (configuration not stated): the GI50 in the assay on CCRF-CEM, in the assay on SK-MEL-28, with MOLT-4, with A498, with NCI-H23 and with SW-620 was > 100 µM (inactive) each time. In addition, the GI50 in the assay with UACC-257, in the assay on OVCAR-8, in the assay on SNB-19, in the assay with SK-OV-3, with MDA-MB-435 and with RPMI-8226 was > 100 µM (inactive) each time. The GI50 with OVCAR-3, in the assay with SN12C, with SK-MEL-5, in the assay with OVCAR-5, in the assay on SK-MEL-2 and in the assay on COLO 205 was > 100 µM (inactive) each time. Also, in the assay on DU-145, the GI50 was > 100 µM (inactive).
Take `CSC1=N/C(=C\c2cccs2)C(=O)N1CN1CCOCC1`: the GI50 in the assay with CCRF-CEM was 27.3 µM (inactive); in the assay on SK-MEL-28, > 100 µM (inactive); in the assay on MOLT-4, 34.1 µM (inactive); with A498, 64.9 µM (inactive); with NCI-H23, > 100 µM (inactive); in the assay with SW-620, 55 µM (inactive). Also, the GI50 is 28.8 µM (inactive) in the assay on OVCAR-8; 45.6 µM (inactive) with SNB-19; > 100 µM (inactive) in the assay on SK-OV-3; > 100 µM (inactive) with MDA-MB-435; 20 µM (inactive) with RPMI-8226; > 100 µM (inactive) in the assay with OVCAR-3. Further, the GI50 in the assay with SN12C is 5.2 µM (inactive); with SK-MEL-5 it was 41.1 µM (inactive); in the assay on OVCAR-5, > 100 µM (inactive); with SK-MEL-2, 52.4 µM (inactive); in the assay with COLO 205 it was 45.5 µM (inactive); with DU-145 it was 65.9 µM (inactive).
For the molecule `ClCCC[Si]12OCCN(CCO1)CCO2`, the GI50 in the assay with HCC 2998, in the assay on CCRF-CEM, in the assay on SK-MEL-28, in the assay with MOLT-4, in the assay on A498 and in the assay on NCI-H23 was > 100 µM (inactive) each time. The GI50 in the assay on SW-620, with UACC-257, with OVCAR-8, with SNB-19, in the assay on SK-OV-3 and in the assay on RPMI-8226 was > 100 µM (inactive) each time. For the same molecule, the GI50 in the assay on OVCAR-3, with SN12C, in the assay on SK-MEL-5, with OVCAR-5, with SK-MEL-2 and in the assay on COLO 205 was > 100 µM (inactive) throughout.
`C/C(CN1C(=O)c2ccccc2C1=O)=N\NS(=O)(=O)c1cccc(C(=O)O)c1`: the GI50 in the assay with HCC 2998, in the assay on CCRF-CEM, with SK-MEL-28, in the assay with MOLT-4, in the assay on A498 and in the assay on NCI-H23 was > 100 µM (inactive) throughout. Also, the GI50 in the assay on SW-620, in the assay with UACC-257, in the assay on OVCAR-8, with SNB-19, in the assay on SK-OV-3 and in the assay on RPMI-8226 was > 100 µM (inactive) throughout. Moreover, the GI50 in the assay with OVCAR-3, in the assay with SN12C, with SK-MEL-5, in the assay with OVCAR-5, in the assay with SK-MEL-2 and with COLO 205 was > 100 µM (inactive) in each case.
For the molecule `COC(=O)CCC(=O)c1ccc2c(c1)CC1(Cc3ccccc3C1)C2`, the GI50 in the assay with HCC 2998 was 55.8 µM (inactive); in the assay on CCRF-CEM, 16.4 µM (inactive); with MOLT-4 it was 17.7 µM (inactive); in the assay with A498 it was 48.6 µM (inactive); with NCI-H23, 40.1 µM (inactive); with UACC-257, 24.3 µM (inactive). Moreover, the GI50 is 47.1 µM (inactive) with OVCAR-8; > 100 µM (inactive) with SK-OV-3; 64 µM (inactive) with MDA-MB-435; 31.7 µM (inactive) with RPMI-8226; 57.8 µM (inactive) with OVCAR-3; 82.6 µM (inactive) with SN12C. Also, the GI50 is 16.2 µM (inactive) with SK-MEL-5, 53.5 µM (inactive) in the assay with OVCAR-5, 34.7 µM (inactive) in the assay with SK-MEL-2 and 29.4 µM (inactive) in the assay on COLO 205.
Consider `NCCc1ccc2oc3cc(=O)c4ccccc4c-3nc2c1`, for which the GI50 is 2.37 µM (inactive) in the assay with HCC 2998; 1.79 µM (inactive) in the assay with CCRF-CEM; 3.81 µM (inactive) in the assay on SK-MEL-28; 1.9 µM (inactive) in the assay with MOLT-4; 13.3 µM (inactive) in the assay on A498; 0.746 µM (active) in the assay on NCI-H23. The GI50 is 2.19 µM (inactive) in the assay with SW-620; 2.37 µM (inactive) with UACC-257; 4.91 µM (inactive) in the assay with OVCAR-8; 2.71 µM (inactive) in the assay with SNB-19; 12.1 µM (inactive) in the assay with SK-OV-3; 2.55 µM (inactive) in the assay on RPMI-8226. The GI50 is 2.16 µM (inactive) in the assay on OVCAR-3; 2.22 µM (inactive) with SN12C; 0.705 µM (active) in the assay on SK-MEL-5; 6.14 µM (inactive) with OVCAR-5; 1.71 µM (inactive) in the assay with SK-MEL-2; 0.428 µM (active) in the assay on COLO 205.
